Results from patent US20080194539A1, “Phenyl Diazepane Carboxamides and Annelated Phenyl Piperazine Carboxamides Containing Oxygen and Used as Dopamine D3 Antagonists” (Schwarz Pharma AG, priority 2004, published 2008).
Where two headings read alike, the source gives them in different places.

What was measured:
human D3 [1] = target: T1, human D3 (Homo sapiens, UniProt P35462); settings: compounds known from the prior art (WO 2004/004729), read-out: D3-bonding (Ki), comparative substance, cited from earlier work
T1 construct: expressed in transfected cells

porcine α1-receptor = test: Radioligand binding, α1-receptor, porcine cortex membranes, [3H]prazosin; settings: average of 2-6 experiments in triplicate, read-out: Receptor binding Ki alpha1
Protocol: (§1) Measurement of the binding strengths of the compounds to the serotonin-receptor subtypes 5-HT1a and 5-HT2 was carried out according to methods described by us (Heindl, C. et al. Tetrahedron: Asymmetry 2003, 14, 3141-3152). For this we incubated porcine cortex-membrane preparations with the radioligands [^3H]8-OH-DPAT (for 5-HT1a) or [^3H]ketanserin (5-HT2) and the compounds in various concentrations. In the same way the affinity of the test compounds to the porcine α1-receptor was investigated, wherein porcine cortex-membrane preparations and the α1-selective radioligand [^3H]prazosin were used.

5-HT2 = target: T2, 5-HT2 (Sus scrofa, UniProt P50129); test: Radioligand binding, 5-HT2, porcine cortex membranes, [3H]ketanserin; settings: average of 2-6 experiments in triplicate, read-out: Receptor binding Ki 5-HT2
T2 construct: we incubated porcine cortex-membrane preparations; from tissue; host or cells: porcine cortex
Protocol: as §1

human D4.4 = target: T3, human D4.4 (Homo sapiens, UniProt P21917); test: Radioligand binding, human D4.4 in CHO cell membranes, [3H]spiperone; settings: human D4.4 in CHO membranes, average of 2-6 experiments in triplicate, read-out: Receptor binding Ki D4
T3 construct: expressed in transfected cells
T3 sequence (P21917 1-419): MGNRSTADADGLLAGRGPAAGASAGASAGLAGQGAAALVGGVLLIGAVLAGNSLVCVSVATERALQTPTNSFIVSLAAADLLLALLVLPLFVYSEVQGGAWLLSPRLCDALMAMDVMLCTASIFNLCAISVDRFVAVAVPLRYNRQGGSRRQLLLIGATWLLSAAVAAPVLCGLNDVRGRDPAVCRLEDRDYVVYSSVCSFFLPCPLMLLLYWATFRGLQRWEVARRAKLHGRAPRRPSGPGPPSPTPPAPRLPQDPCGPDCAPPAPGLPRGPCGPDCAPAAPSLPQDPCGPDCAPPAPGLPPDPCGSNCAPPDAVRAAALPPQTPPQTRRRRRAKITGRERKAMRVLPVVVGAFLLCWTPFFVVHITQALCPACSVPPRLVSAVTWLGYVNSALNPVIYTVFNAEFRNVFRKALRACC
Protocol: (§2) The biological activities of the compounds according to the invention were determined in radioligand binding investigations. All radioligand experiments were performed according to methods described by us (Hübner, H. et al. J. Med. Chem. 2000, 43, 756-762). For the measurement of the affinities to the receptors of the D2-family membrane homogenates of Chinese hamster ovary cells (CHO cells) were used, which stably express the human D2long-, the human D2short- (Hayes, G. et al. Mol. Endocrinol. 1992, 6, 920-926), the human D3- (Sokoloff, P. et al. Eur. J. Pharmacol. 1992, 225, 331-337) or the human D4.4-receptor sub-type, (Asghari, V. J. Neurochem. 1995, 65, 1157-1165) respectively. Basically the binding assays took place by incubation of the receptor homogenates with the radioligand [^3H]spiperone and the compounds under investigation in various concentrations. Determination of the affinities to the D1-receptor took place with native membrane homogenates, obtained from porcine striatum, and the D1-selective radioligands [^3H]SCH 23390.

human D2long = target: T4, human D2long (Homo sapiens, UniProt P14416); test: Radioligand binding, human D2long in CHO cell membranes, [3H]spiperone; settings: human receptor in CHO membranes, average of 2-6 experiments in triplicate
T4 construct: expressed in transfected cells
Protocol: as §2

human D3 [2] = target: T1, human D3; test: Radioligand binding, human D3 in CHO cell membranes, [3H]spiperone
Protocol: as §2

D1-receptor = target: T5, D1-receptor (Sus scrofa, UniProt P50130); test: Radioligand binding, D1-receptor, porcine striatum membranes, [3H]SCH 23390; settings: average of 2-6 experiments in triplicate
T5 construct: native membrane homogenates, obtained from porcine striatum; from tissue; host or cells: porcine striatum
Protocol: as §2

human D2short = target: T6, human D2short (Homo sapiens, UniProt P14416); test: Radioligand binding, human D2short in CHO cell membranes, [3H]spiperone; settings: human receptor in CHO membranes, average of 2-6 experiments in triplicate
T6 construct: expressed in transfected cells
Protocol: as §2

dopamine D3 receptor = target: T7, dopamine D3 receptor (Homo sapiens, UniProt P35462); test: Mitogenesis assay, [3H]thymidine incorporation in D3 receptor-expressing cells; type: cell-based; settings: for EC50: dose-effect curve, seven concentrations in quadruplicate; for Agonistic activity: with reference to the maximum effect of the full agonist quinpirol
T7 construct: expressed in transfected cells
Protocol: Here various concentrations of the compounds under investigation were incubated with D3 receptor-expressing cells and then the receptor-mediated stimulation of the mitogenesis rate was measured by incorporation of the radioactive marker [^3H]thymidine.

5-HT1a = target: T8, 5-HT1a (Sus scrofa, UniProt A0A4X1UTF5); test: Radioligand binding, 5-HT1a, porcine cortex membranes, [3H]8-OH-DPAT; settings: porcine 5-HT1a, average of 2-6 experiments in triplicate, read-out: Receptor binding Ki 5-HT1
T8 construct: we incubated porcine cortex-membrane preparations; from tissue; host or cells: porcine cortex
T8 sequence (A0A4X1UTF5 1-422): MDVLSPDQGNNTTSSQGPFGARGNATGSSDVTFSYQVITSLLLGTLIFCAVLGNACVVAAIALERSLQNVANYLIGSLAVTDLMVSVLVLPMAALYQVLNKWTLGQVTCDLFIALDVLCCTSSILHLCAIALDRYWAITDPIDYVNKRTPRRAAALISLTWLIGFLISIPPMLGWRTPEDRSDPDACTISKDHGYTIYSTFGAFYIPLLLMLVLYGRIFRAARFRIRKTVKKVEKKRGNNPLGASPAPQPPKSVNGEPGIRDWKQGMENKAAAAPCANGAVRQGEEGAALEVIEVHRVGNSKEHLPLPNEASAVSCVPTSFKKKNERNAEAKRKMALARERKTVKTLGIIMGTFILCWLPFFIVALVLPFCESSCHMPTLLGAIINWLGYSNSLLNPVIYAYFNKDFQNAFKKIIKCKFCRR
Protocol: as §1

[3] = Table 1c, read-out: D3-bonding (Ki), substance according to the invention
[4] = human receptor in CHO membranes, [3H]spiperone, average of 2-6 experiments in triplicate, read-out: Receptor binding Ki D3
[5] = Table 1a, read-out: D3-bonding (Ki), substance according to the invention
[6] = Table 1b, read-out: D3-bonding (Ki), substance according to the invention

T2 sequence (P50129 whole entry): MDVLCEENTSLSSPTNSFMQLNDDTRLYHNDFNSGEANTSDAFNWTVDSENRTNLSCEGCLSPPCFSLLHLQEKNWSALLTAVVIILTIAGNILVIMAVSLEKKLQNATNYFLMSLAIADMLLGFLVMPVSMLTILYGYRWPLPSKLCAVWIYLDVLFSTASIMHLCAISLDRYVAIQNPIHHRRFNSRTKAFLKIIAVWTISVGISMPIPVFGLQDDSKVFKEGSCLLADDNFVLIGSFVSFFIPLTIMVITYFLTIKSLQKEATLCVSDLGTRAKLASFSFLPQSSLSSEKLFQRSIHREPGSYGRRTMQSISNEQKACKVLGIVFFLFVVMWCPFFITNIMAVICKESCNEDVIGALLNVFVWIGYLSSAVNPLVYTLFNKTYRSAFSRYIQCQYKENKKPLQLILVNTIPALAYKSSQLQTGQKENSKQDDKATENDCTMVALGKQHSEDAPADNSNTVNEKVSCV
T1 sequence (P35462 whole entry): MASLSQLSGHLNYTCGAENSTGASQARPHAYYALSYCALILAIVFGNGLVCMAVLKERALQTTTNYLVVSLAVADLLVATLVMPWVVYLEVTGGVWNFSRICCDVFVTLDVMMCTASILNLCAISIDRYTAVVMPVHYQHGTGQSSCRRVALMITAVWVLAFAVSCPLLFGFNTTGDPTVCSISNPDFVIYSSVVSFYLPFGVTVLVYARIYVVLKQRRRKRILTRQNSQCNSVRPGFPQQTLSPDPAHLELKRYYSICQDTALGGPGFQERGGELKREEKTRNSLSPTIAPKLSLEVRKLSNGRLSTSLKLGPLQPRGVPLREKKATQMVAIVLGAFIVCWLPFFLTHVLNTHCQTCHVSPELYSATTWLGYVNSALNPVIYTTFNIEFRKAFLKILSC
T7 sequence (P35462 whole entry): as above
T6 sequence (P14416 1-414 isoform P14416-2): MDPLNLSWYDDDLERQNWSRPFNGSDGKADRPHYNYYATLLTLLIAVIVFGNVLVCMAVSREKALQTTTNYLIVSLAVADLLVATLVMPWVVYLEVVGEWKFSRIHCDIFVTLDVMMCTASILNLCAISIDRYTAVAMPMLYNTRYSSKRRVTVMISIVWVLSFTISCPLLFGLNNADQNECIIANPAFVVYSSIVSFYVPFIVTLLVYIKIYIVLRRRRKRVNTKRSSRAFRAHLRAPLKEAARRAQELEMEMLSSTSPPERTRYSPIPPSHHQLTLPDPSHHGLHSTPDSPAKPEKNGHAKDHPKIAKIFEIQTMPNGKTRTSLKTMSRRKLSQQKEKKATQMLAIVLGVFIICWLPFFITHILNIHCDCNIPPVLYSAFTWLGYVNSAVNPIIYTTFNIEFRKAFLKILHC
T4 sequence (P14416 whole entry): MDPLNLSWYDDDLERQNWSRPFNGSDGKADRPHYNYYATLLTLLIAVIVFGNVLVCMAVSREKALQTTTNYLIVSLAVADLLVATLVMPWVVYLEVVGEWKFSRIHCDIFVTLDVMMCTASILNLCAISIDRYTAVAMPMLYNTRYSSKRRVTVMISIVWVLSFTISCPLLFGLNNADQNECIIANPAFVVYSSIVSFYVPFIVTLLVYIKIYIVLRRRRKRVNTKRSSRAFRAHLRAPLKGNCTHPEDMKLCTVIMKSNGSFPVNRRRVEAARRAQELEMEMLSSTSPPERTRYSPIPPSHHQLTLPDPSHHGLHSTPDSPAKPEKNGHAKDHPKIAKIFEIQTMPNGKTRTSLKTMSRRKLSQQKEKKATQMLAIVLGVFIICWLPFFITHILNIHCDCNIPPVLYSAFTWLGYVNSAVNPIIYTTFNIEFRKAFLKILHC
T5 sequence (P50130 whole entry): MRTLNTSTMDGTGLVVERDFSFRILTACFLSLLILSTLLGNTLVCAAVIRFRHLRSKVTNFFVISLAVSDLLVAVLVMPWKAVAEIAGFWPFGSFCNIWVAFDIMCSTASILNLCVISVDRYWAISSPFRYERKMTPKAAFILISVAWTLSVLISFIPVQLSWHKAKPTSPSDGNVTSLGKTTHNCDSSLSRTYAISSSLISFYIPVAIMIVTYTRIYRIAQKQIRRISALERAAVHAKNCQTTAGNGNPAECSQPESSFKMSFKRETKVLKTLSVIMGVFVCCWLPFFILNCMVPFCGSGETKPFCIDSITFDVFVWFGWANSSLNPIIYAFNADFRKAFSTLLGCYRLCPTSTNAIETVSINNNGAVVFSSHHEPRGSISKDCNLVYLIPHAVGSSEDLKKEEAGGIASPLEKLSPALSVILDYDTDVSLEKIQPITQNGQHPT

Ki (porcine α1-receptor) [nM] | Ki (5-HT2) [nM] | Ki (human D4.4) [nM] | Ki (human D2long) [nM] | Ki (human D3 [2]; [3]) [nM] | Ki (human D3 [2]; [4]) [nM] | Ki (D1-receptor) [nM] | Ki (human D2short) [nM] | Agonistic activity (dopamine D3 receptor) [%] | Ki (5-HT1a) [nM] | Ki (human D3 [2]; [5]) [nM] | Compound | also measured
– | – | – | – | – | – | – | – | – | – | – | N#Cc1ccc2cc(C(=O)NCCCCN3CCN(c4cccc(Cl)c4Cl)CC3)[nH]c2c1 | Ki (human D3 [1]; Table 1a): 0.35 nM
– | – | – | – | – | – | – | – | – | – | – | N#Cc1ccc2sc(C(=O)NCCCCN3CCN(c4cccc(Cl)c4Cl)CC3)cc2c1 | Ki (human D3 [1]; Table 1c): 0.25 nM
2 | 110 | 22 | 45 | – | 0.16 | 300 | 27 | 0 | 30 | 0.35 | O=C(NCCCCN1CCN(c2cccc3c2OCC3)CC1)c1cc2ccccc2[nH]1 [Example 2, N-(4-(4-(2,3-dihydrobenzofuran-7-yl)piperazin-1-yl)butyl)indol-2-ylcarbamide] | –
4.6 | 77 | 50 | 110 | 0.16 | 0.35 | 300 | 83 | 38 | 17 | – | O=C(NCCCCN1CCN(c2cccc3c2OCCC3)CC1)c1cc2ccccc2s1 [Example 3, N-(4-(4-(chroman-8-yl)piperazin-1-yl)butyl)benzo[b]thiophen-2-ylcarbamide] | melting point: 134 °C; EC50 (dopamine D3 receptor): 1.8 nM
2.3 | 110 | 34 | 42 | – | 0.17 | 290 | 22 | 0 | 20 | 0.17 | O=C(NCCCCN1CCN(c2cccc3c2OCCC3)CC1)c1cc2ccccc2[nH]1 [Example 4, N-(4-(4-(chroman-8-yl)piperazin-1-yl)butyl)indol-2-ylcarbamide] | –
– | – | – | – | 0.098 | – | – | – | – | – | – | O=C(NCCCCN1CCN(c2cccc3c2OCCCC3)CC1)c1cc2ccccc2s1 [Example 12, N-(4-(4-(2,3,4,5-tetrahydrobenzo[b]oxepin-9-yl)piperazin-1-yl)butyl)benzo[b]thiophen-2-ylcarbamide] | melting point: 124 °C
– | – | – | – | 0.097 | – | – | – | – | – | – | N#Cc1ccc2sc(C(=O)NCCCCN3CCN(c4cccc5c4OCCCC5)CC3)cc2c1 [Example 13, N-(4-(4-(2,3,4,5-tetrahydrobenzo[b]oxepin-9-yl)piperazin-1-yl)butyl)-5-cyanobenzo[b]thiophen-2-ylcarbamide] | –
– | – | – | – | – | – | – | – | – | – | – | O=C(NCCCCN1CCN(c2cccc3c2OCCCC3)CC1)c1cc2ccccc2o1 [Example 14, N-(4-(4-(2,3,4,5-tetrahydrobenzo[b]oxepin-9-yl)piperazin-1-yl)butyl)benzofuran-2-ylcarbamide] | Ki (human D3 [2]; [6]): 0.089 nM
– | – | – | – | – | – | – | – | – | – | 0.052 | O=C(NCCCCN1CCN(c2cccc3c2OCCCC3)CC1)c1cc2ccccc2[nH]1 [Example 16, N-(4-(4-(2,3,4,5-tetrahydrobenzo[b]oxepin-9-yl)piperazin-1-yl)butyl)indol-2-ylcarbamide] | –
– | – | – | – | – | – | – | – | – | – | 0.075 | N#Cc1ccc2cc(C(=O)NCCCCN3CCN(c4cccc5c4OCCCC5)CC3)[nH]c2c1 [Example 17, N-(4-(4-(2,3,4,5-tetrahydrobenzo[b]oxepin-9-yl)piperazin-1-yl)butyl)-6-cyanoindol-2-ylcarbamide] | –
– | – | – | – | – | – | – | – | – | – | – | N-(4-(4-(2,3,4,5-tetrahydrobenzo[b]oxepin-9-yl)piperazin-1-yl)butyl)-5-bromobenzofuran-2-ylcarbamide [Example 15] | Ki (human D3 [2]; [6]): 0.11 nM

Compound | Ki (porcine α1-receptor) [nM] | Ki (5-HT2) [nM] | Ki (human D4.4) [nM] | Ki (human D2long) [nM] | Ki (human D3 [2]; [3]) [nM] | Ki (human D3 [2]; [4]) [nM] | Ki (D1-receptor) [nM] | Ki (human D2short) [nM] | Agonistic activity (dopamine D3 receptor) [%] | Ki (5-HT1a) [nM] | Ki (human D3 [2]; [5]) [nM] | also measured
O=C(NCCCCN1CCN(c2cccc3c2OCC3)CC1)c1cc2ccccc2s1 [Example 1, N-(4-(4-(2,3-dihydrobenzofuran-7-yl)piperazin-1-yl)butyl)benzo[b]thiophen-2-ylcarbamide] | 4.2 | 100 | 65 | 73 | 0.31 | 0.31 | 260 | 50 | 42 | 18 | – | EC50 (dopamine D3 receptor): 3.2 nM
